From patent US6713436B1, “1-cycloalkylpyrazolyl-benzoyl derivatives” (BASF Aktiengesellschaft, priority 1999, dated 2004)

Tests used:
[1] = tested on: Echinochloa crus-galli; assay: greenhouse post-emergence herbicidal test; assay type: in vivo; details: Echinochloa crus-galli (barnyard grass), application rates of 0.5 or 0.25 kg/ha
From the text: (§1) The seeds of the test plants were sown separately for each species. For the post-emergence treatment, the test plants were first grown to a height of 3 to 15 cm, depending on the plant habit, and only then treated with the active compounds which had been suspended or emulsified in water. The test plants were for this purpose either sown directly and grown in the same containers, or they were first grown separately as seedlings and transplanted into the test containers a few days prior to treatment. The application rate for the post-emergence treatment was 0.5 or 0.25 kg of a.s. (active substance)/ha. Depending on the species, the plants were kept at 10-25° C. or 20-35° C. The test period extended over 2 to 4 weeks. During this time, the plants were tended, and their response to the individual treatments was evaluated. The evaluation was carried out using a scale from 0 to 100. 100 means no emergence of the plants, or complete destruction of at least the aerial parts and 0 means no damage, or normal course of growth. The plants used in the greenhouse experiments were of the following species: [table]

[2] = tested on: Brachiaria plantaginea; assay: greenhouse post-emergence herbicidal test; assay type: in vivo; details: Brachiaria plantaginea (alexander grass), application rates of 0.5 or 0.25 kg/ha
From the text: as §1

[3] = tested on: Chenopodium album; assay: greenhouse post-emergence herbicidal test; assay type: in vivo; details: Chenopodium album (lamb's-quarters), application rates of 0.5 or 0.25 kg/ha
From the text: as §1

[4] = tested on: Polygonum persicaria; assay: greenhouse post-emergence herbicidal test; assay type: in vivo; details: Polygonum persicaria (lady's-thumb), application rates of 0.5 or 0.25 kg/ha
From the text: as §1

Cc1c(C(=O)c2cnn(C3CCCC3)c2O)ccc(S(C)(=O)=O)c1C1=NOCC1 [compound 4.6, 4-[2-Methyl-3-(4,5-dihydroisoxazol-3-yl)-4-methylsulfonylbenzoyl]-1-cyclopentyl-5-hydroxy-1H-pyrazole]
melting point: 135 to 140 °C
post-emergence action [1]: very good
post-emergence action [2]: very good
post-emergence action [3]: very good
post-emergence action [4]: very good
